{"source": "patent US7772255B2", "about": "“Method of treating tumors with azaxanthones” (Supratek Pharma, Inc., priority 2005, dated 2010)", "key": {"[1]": {"tested_on": "metastatic (Stage III-IV) breast cancer", "experiment": "Amlexanox in women with metastatic breast cancer whose primary tumors are removed surgically (Example 7)", "format": "in vivo, human", "details": "500 mg orally twice a day; baseline until nine months after administration and follow-up", "method": "In this study, 44 women with metastatic (Stage III-IV) breast cancer whose primary tumors are removed surgically are treated by orally administering 500 mg amlexanox twice a day. The total dose, per patient, is 1,000 mg daily. Baseline assessments are performed at the start of the treatment (treated group) and these baseline results are compared with repeat assessments during various follow-up periods of this treatment. The treatment is conducted for at least ten consecutive days and it is continued further until substantial progression of the disease is noted. The study, which includes treatment of all patients and their follow-up, lasts for at least nine months or until disease progression in the last patient with responding or stable disease. […] In carrying out this study, the response rate and one year survival data for each of the patients in the treated group is determined and compared with an untreated group. […] If there is a delay of the substantial progression of the disease, then treatment is stopped when it is determined that substantial progression of the disease in that patient resumes. […] One week after the first administration of amlexanox, patients are clinically evaluated (adverse event review, concomitant medication and concurrent illness) and the following laboratory evaluations are conducted: hematology, blood chemistry and urinalysis. […]"}, "[2]": {"tested_on": "CSML100 cells", "experiment": "S100A4-positive lung metastasis tumor model, alone or in combinations (Example 25)", "format": "in vivo, mouse", "details": "CSML100 i.v. in A/J mice, 10 days, mean±SEM", "method": "Amlexanox solution for injections was prepared according to the Example 4. […] The animals were then divided randomly into 9 groups (n=9 except for control group): 1) intact control (n=13, saline); 2) Amlexanox (i.v. 100 mg/kg); 3) Amlexanox ([…]. 3 mg/kg); 5) Amlexanox ([…]. […] 10 mg/kg). […] The treatments were started on the day following the tumor cell implantation and continued for 10 consecutive days. […] The animal body weight was recorded as an index of treatment toxicity during the experiment. […] The data are expressed as mean±SEM for the number of metastatic sites on the lung surface."}}}
{"compound": "CC(C)c1ccc2oc3nc(N)c(C(=O)O)cc3c(=O)c2c1", "note": "[Amlexanox, 2-amino-7-isopropyl-1-azaxanthone-3-carboxylic acid]", "values": [{"measurement": "percentage of patients with little or no progression of the disease, compared to the non-treated group", "setting": "[1]", "value": "greater percentage of the patients in the group of patients treated with the amlexanox show little or no progression of the disease"}, {"measurement": "Lung Metastasis Number per Animal", "setting": "[2]; Amlexanox i.v. 100 mg/kg daily", "value": "29.6 ± 3.89"}, {"measurement": "Lung Metastasis Number per Animal", "setting": "[2]; Amlexanox p.o. 200 mg/kg daily", "value": "26.2 ± 4.16"}]}
